A compilation of properties of binary mixtures (doi:10.1016/j.molliq.2021.117187)

Test: xn = mol fraction of the nth substance listed
Details: 100 kPa

CCCC[n+]1ccn(C)c1.F[B-](F)(F)F + CCOC(C)=O
speed of sound [m/s]
Details	x1 = 0.1012	x1 = 0.1992	x1 = 0.312	x1 = 0.3985	x1 = 0.5056	x1 = 0.5996	x1 = 0.7054	x1 = 0.7963	x1 = 0.9185
298.15 K	1186	1228.1	–	1307	1351.4	–	1437.5	–	–
303.15 K	1164.6	1207.8	–	–	1334.1	–	1422.3	–	1509.6
308.15 K	–	–	1232	1270.6	1317.1	1360.3	1407.5	–	1496.9
313.15 K	–	1167.6	–	1252.4	–	–	1392.6	1438.8	1484.1
318.15 K	–	1147.5	1193.9	1234.4	1283.1	1328.3	1377.8	1425.1	–
323.15 K	1080.1	1127.5	1175	1216.4	–	1312.6	1363.2	1411.6	1459.1
